pIC50, pKi: −log10 of the molar value. Like-named read-outs stand apart in the source and are kept apart here.
Columns and labels:
[1] = target: T1, dopamine transporter (DAT) (Rattus norvegicus, UniProt P23977); assay: [3H]Dopamine uptake assay, striatal synaptosomes; format: biochemical
T1 construct: Striata were homogenized in 20 ml of ice-cold sucrose solution; from tissue; host or cells: striatal synaptosomes

[2] = target: α4β2* nicotinic receptor (Rattus norvegicus, UniProt P09483+P12390); assay: High affinity [3H]nicotine binding assay; design: The pellet containing the striatal membranes was resuspended; from tissue; host or cells: rat striatal membranes
[3] = target: T2, α7* nicotinic receptor (Rattus norvegicus, UniProt Q05941); assay: [3H]Methyllycaconitine ([3H]MLA) binding assay
T2 construct: Whole rat brain (minus cortex, striatum and cerebellum) was homogenized; from tissue; host or cells: rat whole brain membranes (minus cortex, striatum and cerebellum)

[4] = target: T3, serotonin transporter (SERT) (Rattus norvegicus, UniProt P31652); assay: [3H]5-HT uptake assay, hippocampal synaptosomes; format: biochemical
T3 construct: Rat hippocampus was homogenized in 20 mL cold 0.32 M sucrose; from tissue; host or cells: rat hippocampal synaptosomes

[5] = system: methamphetamine-evoked endogenous DA release from striatal slices; assay: Methamphetamine-evoked endogenous DA overflow from superfused striatal slices; format: cell-based; conditions: read-out: Inhibition of Methamphetamine Evoked DA Overflow IC50 (Mean)
[6] = target: α6β2* nicotinic receptor (Rattus norvegicus, UniProt P12390+P43143); assay: Nicotine-evoked [3H]DA overflow from superfused striatal slices; format: cell-based
[7] = Table 3, earlier study, read-out: Ki [3H]-Nicotine Binding Assay
[8] = Table 1, rat whole brain membranes, read-out: [3H]MLA Binding (Ki) α7*
[9] = Table 3, earlier study, read-out: Ki [3H]-Dopamine Uptake Assay
[10] = Table 1, rat striatal membranes, read-out: [3H]Nicotine Binding (Ki) α4β2*
[11] = Table 1, read-out: [3H]DA Uptake (Ki)
[12] = Table 1, read-out: [3H]5-HT Uptake (Ki) SERT
[13] = read-out: inhibition of nicotine-evoked [3H]DA overflow IC50

T3 sequence (P31652 whole entry): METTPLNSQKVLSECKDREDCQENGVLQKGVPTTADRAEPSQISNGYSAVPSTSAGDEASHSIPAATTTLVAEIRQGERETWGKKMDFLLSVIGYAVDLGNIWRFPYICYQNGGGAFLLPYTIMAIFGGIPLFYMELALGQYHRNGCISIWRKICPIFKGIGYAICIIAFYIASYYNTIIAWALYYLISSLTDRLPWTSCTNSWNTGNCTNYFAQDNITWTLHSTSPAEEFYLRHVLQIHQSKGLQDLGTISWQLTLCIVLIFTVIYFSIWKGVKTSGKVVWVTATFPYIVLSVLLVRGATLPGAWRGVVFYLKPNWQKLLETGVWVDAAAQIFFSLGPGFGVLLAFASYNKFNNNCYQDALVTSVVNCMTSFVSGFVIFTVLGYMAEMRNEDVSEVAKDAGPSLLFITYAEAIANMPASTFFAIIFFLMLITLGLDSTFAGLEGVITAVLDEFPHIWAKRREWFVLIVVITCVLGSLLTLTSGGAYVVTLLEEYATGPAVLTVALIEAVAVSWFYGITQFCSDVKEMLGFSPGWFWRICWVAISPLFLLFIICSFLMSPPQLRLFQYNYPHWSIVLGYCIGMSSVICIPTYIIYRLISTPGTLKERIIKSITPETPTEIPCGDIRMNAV
α6β2* nicotinic receptor, sequence (P43143 31-493): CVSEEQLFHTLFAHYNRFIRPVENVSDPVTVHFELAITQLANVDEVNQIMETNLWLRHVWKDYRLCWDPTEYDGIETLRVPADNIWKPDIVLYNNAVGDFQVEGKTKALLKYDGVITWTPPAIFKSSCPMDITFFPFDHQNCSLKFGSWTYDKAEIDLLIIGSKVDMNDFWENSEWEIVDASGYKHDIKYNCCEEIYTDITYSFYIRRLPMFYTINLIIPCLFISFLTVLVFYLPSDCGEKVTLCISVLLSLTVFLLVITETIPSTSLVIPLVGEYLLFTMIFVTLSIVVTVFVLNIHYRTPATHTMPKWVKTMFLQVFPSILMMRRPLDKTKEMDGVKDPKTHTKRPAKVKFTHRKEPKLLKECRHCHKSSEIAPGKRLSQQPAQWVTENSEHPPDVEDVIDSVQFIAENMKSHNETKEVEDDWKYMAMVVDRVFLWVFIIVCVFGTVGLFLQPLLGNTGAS
α6β2* nicotinic receptor, sequence (P12390 25-500): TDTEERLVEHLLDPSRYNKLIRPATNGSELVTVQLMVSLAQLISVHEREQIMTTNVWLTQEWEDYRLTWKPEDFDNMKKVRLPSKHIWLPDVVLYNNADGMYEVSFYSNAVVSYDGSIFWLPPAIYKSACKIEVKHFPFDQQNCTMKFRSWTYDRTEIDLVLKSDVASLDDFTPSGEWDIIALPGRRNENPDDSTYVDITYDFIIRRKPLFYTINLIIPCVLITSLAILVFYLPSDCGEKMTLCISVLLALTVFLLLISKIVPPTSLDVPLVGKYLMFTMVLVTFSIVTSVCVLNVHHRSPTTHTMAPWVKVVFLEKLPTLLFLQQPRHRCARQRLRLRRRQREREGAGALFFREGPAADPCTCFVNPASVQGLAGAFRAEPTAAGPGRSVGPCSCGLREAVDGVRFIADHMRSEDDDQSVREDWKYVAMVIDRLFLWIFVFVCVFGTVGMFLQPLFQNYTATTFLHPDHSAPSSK
T1 sequence (P23977 whole entry): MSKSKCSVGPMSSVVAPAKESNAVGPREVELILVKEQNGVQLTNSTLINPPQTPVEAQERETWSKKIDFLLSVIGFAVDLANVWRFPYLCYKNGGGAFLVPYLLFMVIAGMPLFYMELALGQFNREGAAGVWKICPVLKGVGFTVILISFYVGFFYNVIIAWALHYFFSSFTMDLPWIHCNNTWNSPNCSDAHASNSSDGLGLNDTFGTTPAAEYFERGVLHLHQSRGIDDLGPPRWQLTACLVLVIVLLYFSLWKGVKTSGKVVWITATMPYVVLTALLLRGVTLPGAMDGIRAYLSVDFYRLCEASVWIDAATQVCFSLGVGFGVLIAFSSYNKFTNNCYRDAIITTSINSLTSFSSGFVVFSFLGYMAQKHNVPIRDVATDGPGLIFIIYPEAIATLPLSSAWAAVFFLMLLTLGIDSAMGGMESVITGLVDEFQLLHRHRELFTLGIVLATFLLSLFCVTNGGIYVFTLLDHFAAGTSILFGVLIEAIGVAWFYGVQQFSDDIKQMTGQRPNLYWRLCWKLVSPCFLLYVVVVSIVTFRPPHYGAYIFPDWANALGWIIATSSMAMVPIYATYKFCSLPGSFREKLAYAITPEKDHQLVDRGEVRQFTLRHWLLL
T2 sequence (Q05941 23-502): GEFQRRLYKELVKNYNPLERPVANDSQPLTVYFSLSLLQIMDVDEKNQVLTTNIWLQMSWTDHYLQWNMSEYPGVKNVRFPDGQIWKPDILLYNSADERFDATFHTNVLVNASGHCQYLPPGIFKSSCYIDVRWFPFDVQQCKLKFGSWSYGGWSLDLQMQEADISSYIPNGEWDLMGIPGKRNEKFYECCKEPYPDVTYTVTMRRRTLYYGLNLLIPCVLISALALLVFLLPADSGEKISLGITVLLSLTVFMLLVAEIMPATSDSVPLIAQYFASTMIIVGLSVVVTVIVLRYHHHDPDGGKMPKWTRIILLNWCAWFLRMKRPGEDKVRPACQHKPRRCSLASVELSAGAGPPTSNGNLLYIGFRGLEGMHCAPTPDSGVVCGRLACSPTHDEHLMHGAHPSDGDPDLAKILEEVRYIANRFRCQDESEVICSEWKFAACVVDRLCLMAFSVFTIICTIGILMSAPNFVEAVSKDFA
α4β2* nicotinic receptor, sequence (P09483 31-630): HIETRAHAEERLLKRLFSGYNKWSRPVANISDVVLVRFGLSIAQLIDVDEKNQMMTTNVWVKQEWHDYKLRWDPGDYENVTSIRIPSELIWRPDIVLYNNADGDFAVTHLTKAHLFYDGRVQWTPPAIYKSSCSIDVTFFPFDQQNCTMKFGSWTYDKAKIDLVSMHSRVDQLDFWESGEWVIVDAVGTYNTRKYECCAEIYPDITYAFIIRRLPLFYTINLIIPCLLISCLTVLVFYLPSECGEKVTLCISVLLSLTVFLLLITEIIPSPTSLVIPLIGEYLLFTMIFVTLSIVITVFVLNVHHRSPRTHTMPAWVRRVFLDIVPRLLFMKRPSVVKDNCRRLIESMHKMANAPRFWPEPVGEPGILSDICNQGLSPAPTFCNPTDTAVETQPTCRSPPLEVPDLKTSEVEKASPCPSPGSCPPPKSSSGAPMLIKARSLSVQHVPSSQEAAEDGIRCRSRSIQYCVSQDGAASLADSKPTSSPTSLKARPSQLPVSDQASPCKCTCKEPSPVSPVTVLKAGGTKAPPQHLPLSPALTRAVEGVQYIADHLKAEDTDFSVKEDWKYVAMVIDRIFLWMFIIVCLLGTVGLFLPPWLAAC
α4β2* nicotinic receptor, sequence (P12390 25-500): as the sequence (P12390 25-500) above

Compound: CN1[C@H](CCc2ccccc2)CCC[C@@H]1CC(O)c1ccccc1 (mixture of isomers) [Compound 60]
- pKi ([1]; Ki [3H]-Dopamine Uptake Assay): 5.05
- pKi [2, 7]: 6.80

Compound: CN1[C@@H](C[C@H](O)c2ccccc2)CCC[C@H]1/C=C/c1ccccc1 (relative stereo) [Compound 7, N-Methyl-2R-(2S-hydroxy-2-phenethyl)-6S-trans-styrylpiperidine]
- pKi [3, 8]: < 4.00
- pKi [1, 9]: 5.89
- pKi [2, 10]: < 4.00
- pKi [2, 7]: 5.38
- loss of affinity for the nicotinic receptor compared to lobeline ([2]; earlier study (Table 3)): 1000 fold

Compound: CN1C(CC(=O)c2ccccc2)CCCC1CC(O)c1ccccc1 (stereo not drawn) [Compound 1, 2-[6-(β-hydroxyphenethyl)-1-methyl-2-piperidyl]-acetophenone, reference compound]
- pKi [1, 11]: 4.53
- pKi [1, 9]: 4.35
- pKi [4, 12]: 4.59

Compound: CN1[C@@H](CC(=O)c2ccccc2)CCC[C@H]1CC(=O)c1ccccc1 [Compound 3]
- pKi [3, 8]: 4.64
- pKi [1, 11]: 4.80
- pKi [1, 9]: 4.60
- pKi [4, 12]: 5.48
- pKi [2, 10]: 4.43
- pKi [2, 7]: 4.96

Compound: CN1[C@@H](C[C@@H](O)c2ccccc2)CCC[C@H]1C[C@H](O)c1ccccc1 [Compound 4, lobelanidine]
- pKi [3, 8]: 5.48
- pKi [1, 11]: 4.48
- inhibition of DAT, potency compared with lobeline ([1]; Table 1 data): equipotently
- pKi [1, 9]: 4.27
- inhibition of DAT, potency compared with lobeline ([1]; earlier study (Table 3)): equipotently
- pKi [4, 12]: 4.59
- pKi [2, 10]: 5.51
- pKi [2, 7]: 6.03

Compound: CN1[C@@H](C[C@@H](O)c2ccccc2)CCC[C@H]1/C=C/c1ccccc1 [Compound 6, N-Methyl-2R-(2R-hydroxy-2-phenethyl)-6S-trans-styrylpiperidine]
- pKi [3]: 5.80
- pKi ([1]; read-out: [3H]DA Uptake (Ki)): 6.07
- pKi ([4]; [3H]5-HT Uptake (Ki) SERT): 7.40
- pKi ([4]; inhibition of serotonin uptake Ki): 6.42 to 8.00
- melting point: 104 to 105 °C
- pKi [2, 10]: 5.12

Compound: CN1[C@H](C[C@H](O)c2ccccc2)CCC[C@@H]1/C=C/c1ccccc1 [Compound 8]
- pKi [3]: < 4.00
- pKi [2, 10]: 5.01

Compound: CN1[C@H](CCc2ccccc2)CCC[C@@H]1C[C@@H](O)c1ccccc1 [Compound 10, N-Methyl-2R-(2R-hydroxy-2-phenethyl)-6S-(2-phenethyl) piperidine]
- pKi [3, 8]: 5.90
- pKi ([1]; [3H]DA Uptake (Ki)): 5.18
- pKi ([4]; Table 1, data of a mixture of compound 10 and 11, read-out: [3H]5-HT Uptake (Ki) SERT): 8.00
- pKi ([4]; read-out: inhibition of serotonin uptake Ki): 6.42 to 8.00
- pKi [2, 10]: < 4.00

Compound: CN1[C@H](CCc2ccccc2)CCC[C@@H]1C[C@H](O)c1ccccc1 [Compound 11, N-Methyl-2R-(2S-hydroxy-2-phenethyl)-6S-(2-phenethyl) piperidine]
- pKi [3, 8]: < 4.00
- pKi [2, 10]: 4.49

Compound: CN1[C@@H](CCc2ccccc2)CCC[C@H]1C[C@H](O)c1ccccc1 [Compound 12]
- pKi [3, 8]: 4.44
- pKi [2, 10]: 5.92

Compound: CN1[C@@H](/C=C/c2ccccc2)CCC[C@@H]1/C=C/c1ccccc1 [Compound 16, N-methyl-2R,6R-trans-di-trans-styryl piperidine]
- pIC50 ([5]; Rattus norvegicus): 5.90 to 6.37
- pIC50 ([5]; superfused rat striatal slices): 6.37
- melting point: 92 to 93 °C
- pKi [2, 10]: 4.91

Compound: CN1[C@@H](CCc2ccccc2)CCC[C@H]1CCc1ccccc1 [Compound 17, N-methyl-2,6-cis-di-(2-phenethyl)piperidine]
- pKi [3, 8]: 4.37
- pKi ([1]; Ki [3H]-Dopamine Uptake Assay): 5.52
- pKi ([1]; [3H]DA Uptake (Ki)): 5.71
- pKi ([4]; [3H]5-HT Uptake (Ki) SERT): 5.80
- pIC50 ([5]; Rattus norvegicus): 5.90 to 6.37
- pIC50 ([5]; superfused rat striatal slices): 6.36
- pKi [2, 10]: 4.11
- pKi [2, 7]: 4.84

Compound: CN1[C@H](CCc2ccccc2)CCC[C@H]1CCc1ccccc1 [Compound 18, N-methyl-2S,6S-trans-di-(2-phenethyl)piperidine]
- pKi [3, 8]: 4.61
- pIC50 [6, 13]: 8.52
- pKi ([1]; [3H]DA Uptake (Ki)): 5.43
- pKi ([4]; [3H]5-HT Uptake (Ki) SERT): 5.53
- pIC50 ([5]; Rattus norvegicus): < 4.00

Compound: CN1[C@@H](CCc2ccccc2)CCC[C@@H]1CCc1ccccc1 [Compound 19, N-methyl-2R,6R-trans-di-(2-phenethyl)piperidine]
- pIC50 ([5]; Rattus norvegicus): < 4.00

Compound: c1ccc(CC[C@H]2CCC[C@@H](CCc3ccccc3)N2)cc1 [Compound 25, 2,6-cis-diphenethylpiperidine]
- pKi [3]: < 4.00
- pIC50 ([6]; Table 1, inhibition of 10 μM S(−)-nicotine, NI: no inhibition, read-out: Inhibition of Nicotine-Evoked [3H]DA Overflow (IC50) α6β2*): 7.00
- pIC50 [6, 13]: 6.00 to 7.00
- pKi [1, 11]: 5.99
- pKi [4, 12]: 5.60
- pKi [2, 10]: < 4.00

Compound: CCN1[C@@H](CCc2ccccc2)CCC[C@H]1CCc1ccccc1 [Compound 26, N-ethyl-2,6-cis-diphenethylpiperidine]
- pKi [3]: < 4.00
- pKi [2, 10]: < 4.00

Compound: CCCN1[C@@H](CCc2ccccc2)CCC[C@H]1CCc1ccccc1 [Compound 27, N-(n-propyl)-2,6-cis-diphenethylpiperidine]
- pKi [3]: < 4.00
- pKi [2, 10]: < 4.00

Compound: c1cc2c(cc1CC[C@H]1CCC[C@@H](CCc3ccc4c(c3)OCO4)N1)OCO2 [Compound 28]
- pKi [3, 8]: < 4.00
- pKi [2, 10]: < 4.00

Compound: Fc1ccccc1CC[C@H]1CCC[C@@H](CCc2ccccc2F)N1 [Compound 30, 2,6-cis-di-(o-fluorophenethyl)piperidine]
- pKi [3, 8]: < 4.00
- pKi [2, 10]: < 4.00

Compound: CN1[C@@H](CCc2ccccc2F)CCC[C@H]1CCc1ccccc1F [Compound 31, N-methyl-2,6-cis-di-(o-fluorophenethyl)piperidine]
- pKi [3, 8]: < 4.00
- pKi [2, 10]: < 4.00

Compound: Fc1cccc(CC[C@H]2CCC[C@@H](CCc3cccc(F)c3)N2)c1 [Compound 32, 2,6-cis-di-(m-fluorophenethyl)piperidine]
- pKi [3, 8]: < 4.00

Compound: CN1[C@@H](CCc2cccc(F)c2)CCC[C@H]1CCc1cccc(F)c1 [Compound 33, N-methyl-2,6-cis-di-(m-fluorophenethyl)piperidine]
- pKi [3, 8]: < 4.00
- pKi [2, 10]: < 4.00

Compound: Fc1ccc(CC[C@H]2CCC[C@@H](CCc3ccc(F)cc3)N2)cc1 [Compound 34, 2,6-cis-di-(p-fluorophenethyl)piperidine]
- pKi [3, 8]: < 4.00
- pKi [2, 10]: < 4.00

Compound: CN1[C@@H](CCc2ccc(F)cc2)CCC[C@H]1CCc1ccc(F)cc1 [Compound 35, N-methyl-2,6-cis-di-(p-fluorophenethyl)piperidine]
- pKi [3, 8]: < 4.00
- pKi [2, 10]: < 4.00

Compound: COc1ccccc1CC[C@H]1CCC[C@@H](CCc2ccccc2OC)N1 [Compound 36, 2,6-cis-di-(o-methoxyphenethyl)piperidine]
- pKi [3, 8]: < 4.00
- pKi [2, 10]: < 4.00

Compound: COc1cccc(CC[C@H]2CCC[C@@H](CCc3cccc(OC)c3)N2)c1 [Compound 38, 2,6-cis-di-(m-methoxyphenethyl)piperidine]
- pKi [3, 8]: < 4.00
- pKi [2, 10]: < 4.00

Compound: COc1ccc(CC[C@H]2CCC[C@@H](CCc3ccc(OC)cc3)N2)cc1 [Compound 40, 2,6-cis-di-(p-methoxyphenethyl)piperidine]
- pKi [3, 8]: < 4.00
- pKi [2, 10]: < 4.00

Compound: COc1ccc(CC[C@H]2CCC[C@@H](CCc3ccc(OC)cc3)N2C)cc1 [Compound 41, N-methyl-2,6-cis-di-(p-methoxyphenethyl)piperidine]
- pKi [3, 8]: < 4.00
- pKi [2, 10]: < 4.00

Compound: Cc1ccc(CC[C@H]2CCC[C@@H](CCc3ccc(C)cc3)N2)cc1 [Compound 42, 2,6-cis-di-(p-methylphenethyl)piperidine]
- pKi [3, 8]: < 4.00
- pKi [2, 10]: < 4.00

Compound: Cc1ccc(CC[C@H]2CCC[C@@H](CCc3ccc(C)cc3)N2C)cc1 [Compound 43, N-methyl-2,6-cis-di-(p-methylphenethyl)piperidine]
- pKi [3, 8]: < 4.00

Compound: FC(F)(F)c1cccc(CC[C@H]2CCC[C@@H](CCc3cccc(C(F)(F)F)c3)N2)c1 [Compound 44, 2,6-cis-di-(m-trifluoromethylphenethyl)piperidine]
- pKi [3, 8]: < 4.00
- pKi [2, 10]: < 4.00

Compound: CN1[C@@H](CCc2cccc(C(F)(F)F)c2)CCC[C@H]1CCc1cccc(C(F)(F)F)c1 [Compound 45, N-methyl-2,6-cis-di-(m-trifluoromethylphenethyl)piperidine]
- pKi [3, 8]: < 4.00
- pKi [2, 10]: < 4.00

Compound: OCc1ccc(CC[C@H]2CCC[C@@H](CCc3ccc(CO)cc3)N2)cc1 [Compound 48, 2,6-cis-di-(p-hydroxymethylphenethyl)piperidine]
- pKi [3, 8]: < 4.00
- pKi [2, 10]: < 4.00

Compound: CC(=O)OCc1ccc(CC[C@H]2CCC[C@@H](CCc3ccc(COC(C)=O)cc3)N2)cc1 [Compound 49, 2,6-cis-di-(p-acetoxymethylphenethyl)piperidine]
- pKi [3, 8]: < 4.00
- pKi [2, 10]: < 4.00

Compound: Clc1ccc(CC[C@H]2CCC[C@@H](CCc3ccc(Cl)cc3Cl)N2)c(Cl)c1 [Compound 50, 2,6-cis-di-(2,4-dichlorophenethyl)piperidine]
- pKi [3, 8]: < 4.00
- pKi [2, 10]: < 4.00

Compound: CN1[C@@H](CCc2ccc(Cl)cc2Cl)CCC[C@H]1CCc1ccc(Cl)cc1Cl [Compound 51, N-methyl-2,6-cis-di-(2,4-dichlorophenethyl)piperidine]
- pKi [3, 8]: < 4.00
- pKi [2, 10]: < 4.00

From patent US7368443B2, “2,6-disubstituted piperidines and piperazine compounds” (University of Kentucky Research Foundation, priority 1999, dated 2008)
